Data: patent US10039753B2, “Imidazo[4,5-c]quinoline and imidazo[4,5-c][1,5]naphthyridine derivatives as LRRK2 inhibitors” (Pfizer Inc., priority 2015, dated 2018)

Key:
[1] = molecular target: T1, GST-tagged truncated LRRK2 (Homo sapiens, UniProt Q5S007); test: LRRK2 Assay, Format 1 (Lantha Screen), WT; assay type: biochemical
T1 construct: GST-tagged truncated LRRK2 from Invitrogen (Cat # PV4874); GST; purchased Invitrogen PV4874
How it was run: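 Kinase activity measured by TR-FRET: GST-tagged truncated LRRK2 (4 μg/mL working solution) reacted with fluorescein-labeled LRRKtide (ERM-based peptide) across a compound dose response for 2 h at room temperature. Reaction stopped with EDTA-containing detection buffer (20 mM Tris pH 7.6) holding 2 nM terbium anti-phospho-ERM antibody.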

[2] = molecular target: T1, GST-tagged truncated LRRK2; test: LRRK2 Assay, Format 2 (Lantha Screen), WT; assay type: biochemical
mutant G2019S LRRK2 [3] = molecular target: T2, mutant G2019S LRRK2 (Homo sapiens, UniProt Q5S007, G2019S); test: LRRK2 Assay, Format 2 (Lantha Screen), G2019S mutant; assay type: biochemical; set-up: purchased Invitrogen PV4881
mutant G2019S LRRK2 [4] = molecular target: T2, mutant G2019S LRRK2; test: LRRK2 Assay, Format 1 (Lantha Screen), G2019S mutant
Experimental: LRRK2 kinase activity was measured using Lantha Screen technology from Invitrogen. GST-tagged truncated LRRK2 from Invitrogen (Cat # PV4874) was incubated with a fluorescein-labeled peptide substrate based upon ezrin/radixin/moesin (ERM), also known as LRRKtide (Invitrogen cat # PR8976A), in the presence of a dose response of compound. Upon completion, the assay was stopped and detected with a terbium labeled anti-phospho-ERM antibody (Invitrogen, cat # PR8975A). […] Aliquots (3.5 μL) of the 100% DMSO dose response were mixed with 46.5 μL water then 1 μL of this mixture was added to the 3 μL substrate mix in the 384-well plate. The kinase reaction was started with 3 μL of a working solution of LRRK2 enzyme at a concentration of 4 μg/mL. […] The reaction was allowed to progress at room temperature for two hours and then stopped with the addition of 7 μL of detection buffer (20 mM Tris pH 7.6, 0.01% NP-40, 0.02% NaN3, 6 mM EDTA with 2 nM terbium labeled anti-phospho-ERM).
All final concentrations of substrate ATP and enzyme were the same.

[5] = system: kinase selectivity mini-panel; test: Kinase selectivity (mini-panel), further assay run, Table 5A; assay type: biochemical; conditions: 1 mM ATP, 1 μM drug concentration; for percent inhibition of ABL: kinase ABL; for percent inhibition of AKT: kinase AKT; for percent inhibition of AURA: kinase AURA; for percent inhibition of BTK: kinase BTK; for percent inhibition of CDK2_CyclinA: kinase CDK2_CyclinA; for percent inhibition of CHK1: kinase CHK1; for percent inhibition of CHK2: kinase CHK2; for percent inhibition of CKIIa′: kinase CKIIa′; for percent inhibition of CKIa: kinase CKIa; for percent inhibition of CaMKIIa: kinase CaMKIIa; for percent inhibition of EGFR: kinase EGFR; for percent inhibition of ERK2: kinase ERK2; for percent inhibition of EphA2: kinase EphA2; for percent inhibition of FGFR1: kinase FGFR1; for percent inhibition of GSK3b: kinase GSK3b; for percent inhibition of HGFR: kinase HGFR; for percent inhibition of IRAK4: kinase IRAK4; for percent inhibition of IRK: kinase IRK; for percent inhibition of JAK3: kinase JAK3; for percent inhibition of KDR (VEGF): kinase KDR (VEGF); for percent inhibition of LCK: kinase LCK; for percent inhibition of MARK1: kinase MARK1; for percent inhibition of MK2: kinase MK2; for percent inhibition of MLCK_sk: kinase MLCK_sk; for percent inhibition of MST2: kinase MST2; for percent inhibition of MST4: kinase MST4; for percent inhibition of PAK4: kinase PAK4; for percent inhibition of PDK1: kinase PDK1; for percent inhibition of PIM2: kinase PIM2; for percent inhibition of PKACa: kinase PKACa; for percent inhibition of PRKCB2: kinase PRKCB2; for percent inhibition of ROCKI: kinase ROCKI; for percent inhibition of SGK: kinase SGK; for percent inhibition of SRC: kinase SRC; for percent inhibition of TAO2: kinase TAO2; for percent inhibition of TIE2: kinase TIE2; for percent inhibition of TRKA: kinase TRKA; for percent inhibition of ZC1 (HGK): kinase ZC1 (HGK); for percent inhibition of p38: kinase p38
Experimental: The compounds were run using a commercially available kinase selectivity assay which is available from CarnaBio USA, Inc. 209 West Central St., Suite 307, Natick, Mass. 01760 USA. The compounds of Examples 3, 4, 5 and 22 were run in the assay at a concentration of 1 μM using an ATP concentration of 1 mM.

[6] = geometric mean of 2-4 determinations unless otherwise indicated
[7] = geometric mean of 2-4 determinations unless otherwise indicated (a: >=5; b: single determination)
[8] = geometric mean of 2-4 determinations unless otherwise indicated (a: >=5; b: single determination), read-out: LRRK2, Format 2 G2019S IC50
[9] = Format 1, wild-type LRRK2, geometric mean of 2-4 determinations unless footnoted (a: ≥5 determinations; b: single determination; c: determined on trifluoroacetate salt)

T2 sequence (Q5S007 970-2527 G2019S limits assumed): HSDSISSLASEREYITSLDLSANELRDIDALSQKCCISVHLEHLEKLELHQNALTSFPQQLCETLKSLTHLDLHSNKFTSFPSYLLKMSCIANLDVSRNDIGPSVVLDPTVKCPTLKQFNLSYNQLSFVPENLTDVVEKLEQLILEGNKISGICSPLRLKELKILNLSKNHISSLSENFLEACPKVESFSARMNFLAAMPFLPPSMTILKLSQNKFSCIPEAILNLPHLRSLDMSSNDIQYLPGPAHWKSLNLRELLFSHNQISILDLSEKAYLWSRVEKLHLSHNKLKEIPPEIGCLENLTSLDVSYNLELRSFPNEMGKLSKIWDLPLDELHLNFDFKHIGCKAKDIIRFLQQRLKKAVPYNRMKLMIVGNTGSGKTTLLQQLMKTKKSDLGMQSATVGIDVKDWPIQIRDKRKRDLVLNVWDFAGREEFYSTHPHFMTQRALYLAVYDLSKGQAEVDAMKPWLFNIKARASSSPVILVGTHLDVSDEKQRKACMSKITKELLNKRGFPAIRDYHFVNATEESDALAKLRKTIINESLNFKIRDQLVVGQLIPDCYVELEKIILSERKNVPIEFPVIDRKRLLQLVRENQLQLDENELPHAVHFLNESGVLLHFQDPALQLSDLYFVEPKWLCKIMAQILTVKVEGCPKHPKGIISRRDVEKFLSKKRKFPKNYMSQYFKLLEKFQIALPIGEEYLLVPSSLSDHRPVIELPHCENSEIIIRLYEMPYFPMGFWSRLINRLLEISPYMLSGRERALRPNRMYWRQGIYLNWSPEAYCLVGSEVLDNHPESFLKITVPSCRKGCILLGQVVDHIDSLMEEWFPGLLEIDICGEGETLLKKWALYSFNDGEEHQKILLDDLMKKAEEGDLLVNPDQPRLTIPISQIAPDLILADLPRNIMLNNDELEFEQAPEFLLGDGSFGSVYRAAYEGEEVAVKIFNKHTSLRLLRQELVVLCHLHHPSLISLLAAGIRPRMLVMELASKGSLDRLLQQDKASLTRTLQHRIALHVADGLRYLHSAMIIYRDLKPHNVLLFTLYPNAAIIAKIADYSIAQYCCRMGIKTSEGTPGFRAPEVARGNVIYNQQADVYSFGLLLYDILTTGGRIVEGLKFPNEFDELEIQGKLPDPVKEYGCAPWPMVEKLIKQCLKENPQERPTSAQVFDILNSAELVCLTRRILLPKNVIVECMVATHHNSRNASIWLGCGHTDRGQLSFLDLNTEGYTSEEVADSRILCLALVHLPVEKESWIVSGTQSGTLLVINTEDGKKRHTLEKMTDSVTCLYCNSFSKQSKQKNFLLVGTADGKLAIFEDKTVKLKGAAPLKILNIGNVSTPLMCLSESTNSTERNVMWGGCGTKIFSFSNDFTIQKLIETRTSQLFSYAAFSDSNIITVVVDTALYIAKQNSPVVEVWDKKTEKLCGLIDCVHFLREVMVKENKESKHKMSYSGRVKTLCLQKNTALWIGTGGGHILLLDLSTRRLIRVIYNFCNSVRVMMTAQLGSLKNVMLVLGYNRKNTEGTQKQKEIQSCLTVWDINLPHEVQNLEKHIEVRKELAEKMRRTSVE
T1 sequence (Q5S007 970-2527 limits assumed): as the sequence (Q5S007 970-2527 G2019S limits assumed) above, with S1050G counted along it

## Cc1nc(Cc2nc3cnc4ccc(Cl)cc4c3n2C2C[C@@H](C)[C@@H](F)C2)no1 (single isomer, unassigned) [Example 136]
[1]; [6]
  IC50: 30.1 nM
[2]; [7]
  IC50: 12 nM
Mutant G2019S LRRK2 [3]; [8]
  IC50: 13 nM
Mutant G2019S LRRK2 [4]
  IC50: 24.7 nM

## Cc1nc(Cc2nc3cnc4ccc(Cl)cc4c3n2C2C[C@@H](C)[C@@H](F)C2)no1 (mixture of isomers) [diastereomer of Example 136, 8-chloro-1-[rel-(3S,4R)-3-fluoro-4-methylcyclopentyl]-2-[(5-methyl-1,2,4-oxadiazol-3-yl)methyl]-1H-imidazo[4,5-c]quinoline, DIAST-2]
[1]; 100 nM LRRKtide, 50 μM ATP, 1.7 μg/mL LRRK2 enzyme, two hours at room temperature
  IC50: 156 nM
[2]; 100 nM LRRKtide, 1000 mM ATP (so in the source), 30 minutes at room temperature
  IC50: 63.2 nM
Mutant G2019S LRRK2 [3]; 100 nM LRRKtide, 1000 mM ATP (so in the source), 30 minutes at room temperature, read-out: LRRK2, Format 2 G2019S mutant IC50
  IC50: 69.2 nM
Mutant G2019S LRRK2 [4]
  IC50: 105 nM

## Cc1cn(Cc2nc3cnc4ccc(Cl)cc4c3n2[C@@H]2CCO[C@H](C)C2)nn1 [Example 11, 8-Chloro-1-[(2R,4R)-2-methyltetrahydro-2H-pyran-4-yl]-2-[(4-methyl-1H-1,2,3-triazol-1-yl)methyl]-1H-imidazo[4,5-c]quinoline]
[1]; [9]
  IC50: 3.4 nM
Mutant G2019S LRRK2 [4]
  IC50: 2.6 nM
[5]
  percent inhibition of ABL: 5.06%
  percent inhibition of AKT: 2.25%
  percent inhibition of AURA: 9.46%
  percent inhibition of BTK: 1.63%
  percent inhibition of CDK2_CyclinA: 10.91%
  percent inhibition of CHK1: 9.08%
  percent inhibition of CHK2: 4.45%
  percent inhibition of CKIIa′: 3.12%
  percent inhibition of CKIa: 10.68%
  percent inhibition of CaMKIIa: 3.76%
  percent inhibition of EGFR: 2.76%
  percent inhibition of ERK2: 4.69%
  percent inhibition of EphA2: 0.7%
  percent inhibition of FGFR1: 21.95%
  percent inhibition of GSK3b: 3.91%
  percent inhibition of HGFR: −3.76%
  percent inhibition of IRAK4: 4.95%
  percent inhibition of IRK: 0.67%
  percent inhibition of JAK3: −0.46%
  percent inhibition of KDR (VEGF): 29%
  percent inhibition of LCK: 9.31%
  percent inhibition of MARK1: 1.52%
  percent inhibition of MK2: −1.14%
  percent inhibition of MLCK_sk: 4.74%
  percent inhibition of MST2: 23.23%
  percent inhibition of MST4: 10.29%
  percent inhibition of PAK4: 4.23%
  percent inhibition of PDK1: 8.16%
  percent inhibition of PIM2: 4.47%
  percent inhibition of PKACa: 5.23%
  percent inhibition of PRKCB2: −0.76%
  percent inhibition of ROCKI: 6.94%
  percent inhibition of SGK: 4.89%
  percent inhibition of SRC: 1.86%
  percent inhibition of TAO2: 5.98%
  percent inhibition of TIE2: 5.85%
  percent inhibition of TRKA: 13.01%
  percent inhibition of ZC1 (HGK): 2.87%
  percent inhibition of p38: 7.19%

## Cc1nc(Cc2nc3cnc4ccc(Cl)cc4c3n2[C@@H]2CCO[C@H](CC#N)C2)no1 (single isomer, unassigned; ent-1) [Example 135, [cis-4-{8-chloro-2-[(5-methyl-1,2,4-oxadiazol-3-yl)methyl]-1H-imidazo[4,5-c]quinolin-1-yl}tetrahydro-2H-pyran-2-yl]acetonitrile, ENT-1]
[1]; [6]
  IC50: 3.78 nM
[2]; [7]
  IC50: 16 nM
Mutant G2019S LRRK2 [3]; [8]
  IC50: 15.5 nM
Mutant G2019S LRRK2 [4]
  IC50: 3.65 nM

## CC(C)c1cc(Cc2nc3cnc4ccc(Br)cc4c3n2[C@@H]2CCO[C@H](C)C2)no1 [Example 171, 8-bromo-1-[(2R,4R)-2-methyltetrahydro-2H-pyran-4-yl]-2-{[5-(propan-2-yl)-1,2-oxazol-3-yl]methyl}-1H-imidazo[4,5-c]quinoline]
[1]; [6]
  IC50: 17.1 nM
[2]; [7]
  IC50: 5.2 nM
Mutant G2019S LRRK2 [3]; [8]
  IC50: 5.35 nM
Mutant G2019S LRRK2 [4]
  IC50: 15.9 nM

## Cc1cc(Cc2nc3cnc4ccc(Cl)cc4c3n2[C@@H]2CCO[C@H](CC#N)C2)no1 (single isomer, unassigned; ent-1) [Example 134, [cis-4-{8-chloro-2-[(5-methyl-1,2-oxazol-3-yl)methyl]-1H-imidazo[4,5-c]quinolin-1-yl}tetrahydro-2H-pyran-2-yl]acetonitrile, ENT-1]
[1]; [6]
  IC50: 3.48 nM
[2]; [7]
  IC50: 7.68 nM
Mutant G2019S LRRK2 [3]; [8]
  IC50: 7.78 nM
Mutant G2019S LRRK2 [4]
  IC50: 3.78 nM

## Cc1nc(Cc2nc3cnc4ccc(Cl)cc4c3n2[C@@H]2CCO[C@H](C)C2)no1 [Example 5, 8-Chloro-2-[(5-methyl-1,2,4-oxadiazol-3-yl)methyl]-1-[(2R,4R)-2-methyltetrahydro-2H-pyran-4-yl]-1H-imidazo[4,5-c]quinoline]
[1]; [9]
  IC50: 4.6 nM
Mutant G2019S LRRK2 [4]
  IC50: 2.7 nM
[5]
  percent inhibition of ABL: 1.3%
  percent inhibition of AKT: −3.11%
  percent inhibition of AURA: −0.59%
  percent inhibition of BTK: −1.9%
  percent inhibition of CDK2_CyclinA: 3.76%
  percent inhibition of CHK1: 4.68%
  percent inhibition of CHK2: 2.05%
  percent inhibition of CKIIa′: 5.19%
  percent inhibition of CKIa: 8.85%
  percent inhibition of CaMKIIa: 1.1%
  percent inhibition of EGFR: −0.51%
  percent inhibition of ERK2: 2.62%
  percent inhibition of EphA2: 0.13%
  percent inhibition of FGFR1: 12.6%
  percent inhibition of GSK3b: 3.4%
  percent inhibition of HGFR: −7.71%
  percent inhibition of IRAK4: 1.85%
  percent inhibition of IRK: 1.53%
  percent inhibition of JAK3: −0.03%
  percent inhibition of KDR (VEGF): 15.08%
  percent inhibition of LCK: 17.19%
  percent inhibition of MARK1: 3.46%
  percent inhibition of MK2: −3.62%
  percent inhibition of MLCK_sk: 3.8%
  percent inhibition of MST2: 14.89%
  percent inhibition of MST4: 8.04%
  percent inhibition of PAK4: −0.05%
  percent inhibition of PDK1: 0.39%
  percent inhibition of PIM2: −3.78%
  percent inhibition of PKACa: −8.79%
  percent inhibition of PRKCB2: 9.78%
  percent inhibition of ROCKI: 0.07%
  percent inhibition of SGK: −0.06%
  percent inhibition of SRC: 2.47%
  percent inhibition of TAO2: 0.55%
  percent inhibition of TIE2: 2.53%
  percent inhibition of TRKA: 12.31%
  percent inhibition of ZC1 (HGK): −0.79%
  percent inhibition of p38: 5.64%

## Cc1cn(Cc2nc3cnc4ccc(Br)cc4c3n2[C@@H]2CCO[C@H](C)C2)nn1 [Example 173, 8-bromo-1-[(2R,4R)-2-methyltetrahydro-2H-pyran-4-yl]-2-[(4-methyl-1H-1,2,3-triazol-1-yl)methyl]-1H-imidazo[4,5-c]quinoline]
[1]; [6]
  IC50: 5.14 nM
[2]; [7]
  IC50: 6.7 nM
Mutant G2019S LRRK2 [3]; [8]
  IC50: 6.72 nM
Mutant G2019S LRRK2 [4]
  IC50: 3.62 nM

## C[C@@H]1C[C@H](n2c(Cc3cc(C4CC4)on3)nc3cnc4ccc(C#N)cc4c32)CCO1 [Example 145, 2-[(5-cyclopropyl-1,2-oxazol-3-yl)methyl]-1-[(2R,4R)-2-methyltetrahydro-2H-pyran-4-yl]-1H-imidazo[4,5-c]quinoline-8-carbonitrile]
[1]; [6]
  IC50: 4.78 nM
[2]; [7]
  IC50: 6.98 nM
Mutant G2019S LRRK2 [3]; [8]
  IC50: 7.33 nM
Mutant G2019S LRRK2 [4]
  IC50: 4.8 nM
